# Measured values taken from patent publication US11053234B2 (GlaxoSmithKline Intellectual Property Development Limited, priority 2016, dated 2021).
# Structures can show the parent of a compound that is named as a salt.
# Target: T1, haematopoietic prostaglandin D synthase (H-PGDS) (Homo sapiens, UniProt O60760)
# T1 construct: Full length human H-PGDS cDNA (Invitrogen Ultimate ORF 10H13026) was amplified by PCR; 6-His (N); TEV protease cleavage site (N); made in house; host or cells: E. coli BL21 (DE3*), vector pET22b+
# T1 sequence (O60760 whole entry): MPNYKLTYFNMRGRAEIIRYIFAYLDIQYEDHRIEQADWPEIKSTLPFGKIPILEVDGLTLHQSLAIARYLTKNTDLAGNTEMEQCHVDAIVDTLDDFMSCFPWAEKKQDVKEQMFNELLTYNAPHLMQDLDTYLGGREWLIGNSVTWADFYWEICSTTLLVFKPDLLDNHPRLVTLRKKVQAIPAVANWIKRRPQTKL
# Assay: H-PGDS RapidFire high throughput mass spectrometry assay (conversion of PGH2 to PGD2)
# Assay type: biochemical
# Conditions: 10 nM H-PGDS, PGH2 formed in situ by COX-2 from arachidonic acid; read-out: Potency Range (mean pIC50) (converted)
# Summary of the method: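 RapidFire SPE–MS read-out calculated percent conversion from relative PGD2 and PGF2α (substrate surrogate) levels. Recombinant full-length human H-PGDS (His-tag, E. coli) turned over PGH2, produced in situ at ˜10 μM by human COX-2 (FLAG-tag, Sf9 cells) acting on arachidonic acid.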
row,SMILES,IC50
1,"CC(C)(O)[C@H]1CC[C@H](NC(=O)N2CC(Oc3cc(C(N)=O)cc4scnc34)C2)CC1 [Example 330, 4-((1-(((trans)-4-(2-Hydroxypropan-2-yl)cyclohexyl)carbamoyl)azetidin-3-yl)oxy)benzo[d]thiazole-6-carboxamide]",10 to 79.4 nM
2,"CC(C)(O)[C@H]1CC[C@H](NC(=O)[C@H]2C[C@H](Oc3cccc4ccoc34)C2)CC1 [Example 267, (trans)-3-(Benzofuran-7-yloxy)-N-((trans)-4-(2-hydroxypropan-2-yl)cyclohexyl)cyclobutanecarboxamide]",10 to 79.4 nM
3,"CC(C)(O)[C@H]1CC[C@H](NC(=O)[C@H]2C[C@H](Oc3cc(Cl)ccc3OC(F)F)C2)CC1 [Example 273, (trans)-3-(5-Chloro-2-(difluoromethoxy)phenoxy)-N-((trans)-4-(2-hydroxypropan-2-yl)cyclohexyl)cyclobutanecarboxamide]",10 to 79.4 nM
4,"Cc1cc(NC(=O)[C@H]2C[C@H](Oc3cccc4scnc34)C2)ncn1 [Example 307, (trans)-3-(Benzo[d]thiazol-4-yloxy)-N-(6-methylpyrimidin-4-yl)cyclobutanecarboxamide]",10 to 79.4 nM
5,"CC(N[C@H]1CC[C@H](NC(=O)[C@H]2C[C@H](Oc3cc(F)cc4scnc34)C2)CC1)C(F)F (mixture of isomers) [Example 121, Racemic (trans)-N-((trans)-4-((1,1-Difluoropropan-2-yl)amino)cyclohexyl)-3-((6-fluorobenzo[d]thiazol-4-yl)oxy)cyclobutanecarboxamide]",10 to 79.4 nM
6,"CC(C)c1nnc(NC(=O)N2CC(Oc3cccc4scnc34)C2)s1 [Example 334, 3-(Benzo[d]thiazol-4-yloxy)-N-(5-isopropyl-1,3,4-thiadiazol-2-yl)azetidine-1-carboxamide]",10 to 79.4 nM
7,"O=C(Nc1nc(C2CC2)cs1)[C@H]1C[C@H](Oc2cccc3cccnc23)C1 [Example 207, (trans)-N-(4-Cyclopropylthiazol-2-yl)-3-(quinolin-8-yloxy)cyclobutanecarboxamide]",< 10 nM
8,"C[C@]1(O)CC[C@H](NC(=O)[C@H]2C[C@H](Oc3cc(F)ccc3OC(F)F)C2)CC1 [Example 29, (trans)-3-(2-(Difluoromethoxy)-5-fluorophenoxy)-N-((trans)-4-hydroxy-4-methylcyclohexyl)cyclobutanecarboxamide]",10 to 79.4 nM
9,"COCCO[C@H]1CC[C@H](NC(=O)N2CC(Oc3cc(F)cc4scnc34)C2)CC1 [Example 128, 3-((6-Fluorobenzo[d]thiazol-4-yl)oxy)-N-((trans)-4-(2-methoxyethoxy)cyclohexyl)azetidine-1-carboxamide]",10 to 79.4 nM
10,"O=C(Nc1nc(COC(=O)[C@H]2C[C@H](Oc3cc(F)ccc3OC(F)F)C2)cs1)[C@H]1C[C@H](Oc2cc(F)ccc2OC(F)F)C1 [Example 13, (trans)-(2-((trans)-3-(2-(Difluoromethoxy)-5-fluorophenoxy)cyclobutanecarboxamido)thiazol-4-yl)methyl 3-(2-(difluoromethoxy)-5-fluorophenoxy)cyclobutanecarboxylate]",100 to 1000 nM
11,"CC(C)(C)c1nnc(NC(=O)[C@H]2C[C@H](Oc3cccc4cccnc34)C2)o1 [Example 179, (trans)-N-(5-(tert-Butyl)-1,3,4-oxadiazol-2-yl)-3-(quinolin-8-yloxy)cyclobutanecarboxamide]",10 to 79.4 nM
12,"CCOC(=O)Cc1nnc(NC(=O)[C@H]2C[C@H](Oc3cccc4ccoc34)C2)s1 [Example 263, Ethyl 2-(5-((trans)-3-(benzofuran-7-yloxy)cyclobutanecarboxamido)-1,3,4-thiadiazol-2-yl)acetate]",10 to 79.4 nM
13,"CC(C)(O)C(=O)N1CCC(NC(=O)[C@H]2C[C@H](Oc3cc(F)cc4scnc34)C2)CC1 [Example 303, (trans)-3-((6-Fluorobenzo[d]thiazol-4-yl)oxy)-N-(1-(2-hydroxy-2-methylpropanoyl)piperidin-4-yl)cyclobutanecarboxamide]",100 to 1000 nM
14,"Cc1cnc(NC(=O)[C@H]2C[C@H](Oc3cccc4cccnc34)C2)s1 [Example 217, (trans)-N-(5-Methylthiazol-2-yl)-3-(quinolin-8-yloxy)cyclobutanecarboxamide]",10 to 79.4 nM
15,"Cc1ccc(N2CC(NC(=O)N3CC(Oc4cc(F)cc5scnc45)C3)C2)nc1 [Example 232, 3-((6-Fluorobenzo[d]thiazol-4-yl)oxy)-N-(1-(5-methylpyridin-2-yl)azetidin-3-yl)azetidine-1-carboxamide]",10 to 79.4 nM
16,"Cn1nnnc1NC(=O)[C@H]1C[C@H](Oc2cc(F)ccc2OC(F)F)C1 [Example 3, (trans)-3-(2-(Difluoromethoxy)-5-fluorophenoxy)-N-(1-methyl-1H-tetrazol-5-yl)cyclobutanecarboxamide]",100 to 1000 nM
17,"NC(=O)c1csc(NC(=O)[C@H]2C[C@H](Oc3cccc4cccnc34)C2)n1 [Example 189, 2-((trans)-3-(Quinolin-8-yloxy)cyclobutanecarboxamido)thiazole-4-carboxamide, trifluoroacetic acid salt]",10 to 79.4 nM
18,"CC(C)(O)[C@H]1CC[C@H](NC(=O)[C@H]2C[C@H](Oc3cc(F)cc(Cl)c3)C2)CC1 [Example 290, (trans)-3-(3-Chloro-5-fluorophenoxy)-N-((trans)-4-(2-hydroxypropan-2-yl)cyclohexyl)cyclobutanecarboxamide]",100 to 1000 nM
19,"COc1ccc(CN2CCC(NC(=O)[C@H]3C[C@H](Oc4cc(F)ccc4OC)C3)CC2)cc1Cl [Example 156, (trans)-N-(1-(3-Chloro-4-methoxybenzyl)piperidin-4-yl)-3-(5-fluoro-2-methoxyphenoxy)cyclobutanecarboxamide]",10 to 79.4 nM
20,"CC(C)(O)c1cnc(N2CC(NC(=O)[C@H]3C[C@H](Oc4cccc5scnc45)C3)C2)o1 [Example 49, (trans)-3-(Benzo[d]thiazol-4-yloxy)-N-(1-(5-(2-hydroxypropan-2-yl)oxazol-2-yl)azetidin-3-yl)cyclobutanecarboxamide]",10 to 79.4 nM
21,"CC(C)(O)[C@H]1CC[C@H](NC(=O)[C@H]2C[C@H](Oc3cccc4c(Br)coc34)C2)CC1 [Example 269, (trans)-3-((3-Bromobenzofuran-7-yl)oxy)-N-((trans)-4-(2-hydroxypropan-2-yl)cyclohexyl)cyclobutanecarboxamide]",10 to 79.4 nM
22,"NC(=O)c1cnc(NC(=O)[C@H]2C[C@H](Oc3cccc4cccnc34)C2)s1 [Example 191, 2-((trans)-3-(Quinolin-8-yloxy)cyclobutanecarboxamido)thiazole-5-carboxamide]",10 to 79.4 nM
23,"COC(=O)N1CCOC(CNC(=O)N2CC(Oc3cccc4scnc34)C2)C1 (racemic) [Example 94, Racemic Methyl 2-((3-(benzo[d]thiazol-4-yloxy)azetidine-1-carboxamido)methyl)morpholine-4-carboxylate]",100 to 1000 nM
24,"O=C(NC1CN(c2ccccn2)C1)N1CC(Oc2cc(F)cc3scnc23)C1 [Example 132, 3-((6-Fluorobenzo[d]thiazol-4-yl)oxy)-N-(1-(pyridin-2-yl)azetidin-3-yl)azetidine-1-carboxamide]",10 to 79.4 nM
25,"CC(N1CCC(NC(=O)N2CC(Oc3cccc4scnc34)C2)CC1)C(F)(F)F (racemic) [Example 86, Racemic 3-(Benzo[d]thiazol-4-yloxy)-N-(1-(1,1,1-trifluoropropan-2-yl)piperidin-4-yl)azetidine-1-carboxamide]",10 to 79.4 nM
26,N#Cc1ccnc(N2CC(NC(=O)N3CC(Oc4cc(F)cc5scnc45)C3)C2)c1 [Example 134],10 to 79.4 nM
